Source: patent US9782522B2, “Compositions and methods for treating and preventing neointimal stenosis” (Yale University, priority 2011, dated 2017)

Tested on: HUAEC
Assay: qRT-PCR mRNA expression of TGFβ signaling and Endo-MT markers in endothelial cells
Assay type: cell-based, human
Conditions: FRS2 knockdown EC; 10 μM
Text: Human 293T T17 cells (ATCC CRL-11268) were maintained in Dulbecco's modified Eagle's medium (Gibco) with 10% fetal bovine serum (Invitrogen) and penicillinstreptomycin (Gibco). Primary human mammary epithelial cells (HuMEC, Invitrogen), were maintained in HuMEC basal serum free medium with HuMEC supplement (Invitrogen 12754-016) and bovine pituitary extract (Invitrogen 13028-014). Human foreskin cells (ATCC CRL-1079Sk) were maintained in Minimum Essential Medium (ATCC) with 10% fetal bovine serum (Hyclone), β-mercaptoethanol (Sigma), and penicillin-streptomycin (Gibco). Primary human atrial cells (passage 3-5; gift from Y. Qyang, Yale University School of Medicine) were maintained in Dulbecco's modified Eagle's medium (Gibco) with 10% fetal bovine serum (Invitrogen), L-glutamine (Gibco), Sodium pyruvate (Gibco), Non-essential amino acid (Gibco), and penicillin-streptomycin (Gibco). HUAEC (human umbilical artery endothelial cells, passage 5-10, Lonza) were cultured in EBM-2 supplemented with EGM-2-MV bullet kit (Lonza). HUVEC (human umbilical vein endothelial cells, passage 3-7, Yale Vascular Biology and Therapeutics) were cultured in M199 with ECGS, supplemented with 20% FBS (Sigma), L-glutamine (Gibco), and penicillin-streptomycin (Gibco). Culture vessels were coated with 0.1% gelatin (Sigma) for 30 min at 37° C. immediately prior to cell seeding. Primary mouse endothelial cells were isolated from the heart using rat anti-mouse CD31 antibody and Dynabeads (Invitrogen) as previously described (Partovian C, et al. Mol Cell. 32(1):140 (2008)).
RNA was isolated using RNeasy® plus Mini Kit (Qiagen) and converted to cDNA using iScript™ cDNA synthesis kit (Bio-Rad). Quantitative real-time PCR (qRT-PCR) was performed using Bio-Rad […] (Bio-Rad) by mixing equal amount of eDNAs, iQ™ SYBR® Green Supermix (Bio-Rad) and gene specific primers. All reactions were done in a 25 μl reaction volume in duplicate. Data were normalized to endogenous β-actin. Values are expressed as fold change in comparison to control. Mouse TGFβ gene expression was quantified via qRT-PCR with TaqMan® Gene Expression Assays (Mm00441726_m1; Applied Biosystems) and HPRT (Mm00441258_1; Applied Biosystems) as endogenous control followed the manufacturer's recommendation. Quantitative PCR analysis of 84 TGFβ and epithelial to mesenchymal transition (EMT) related genes were performed using Human TGFβ BMP signaling pathway (PAHS-035D, QIAGEN) and Human Epithelial to Mesenchymal Transition (PAHS-090D, QIAGEN) RT^2 Profiler™ PCR Arrays following the manufacturer's protocol. RT^2 Profiler™ PCR arrays were run on a Bio-Rad CFX96 machine (Bio-Rad). Duplicate arrays were run per condition for control and FRS2 knockdown human umbilical arterial endothelial cells (HUAEC). Data analysis was performed using the manufacturer's integrated web-based software package for the PCR Array System using cycle threshold (Ct)-based fold-change calculations.
Recombinant human FGF2 (R&D) and TGFβ1 (Peprotech) were reconstituted in 0.1% BSA/PBS. U0126 (Sigma), a MEK inhibitor, was reconstituted in DMSO and used at a final concentration of 10 μM. SB431542 (Sigma), a TGFBR1 kinase inhibitor, was reconstituted in DMSO and used at a final concentration of 10 μM in cell culture. Actinomycin D (Sigma), a DNA transcription suppressor, was reconstituted in acetone and used at a final concentration of 10 μg/ml in cell culture. […]

NC(=O)c1ccc(-c2nc(-c3ccc4c(c3)OCO4)c(-c3ccccn3)[nH]2)cc1 [SB431542, 4-[4-(1,3-Benzodioxol-5-yl)-5-(2-pyridinyl)-1H-imidazol-2-yl]-benzamide]
significantly decreased: SM-calponin expression | fibronectin expression | vimentin expression
